Measurements: US20060122181A1, “Heteroaromatic pentacyclic compound and medicinal use thereof” (Japan Tobacco Inc., priority 2003, published 2006)

Tests used:
[1] = target: T1, Recombinant human protein tyrosine phosphatase 1B (Homo sapiens, UniProt P18031); assay: Protein tyrosine phosphatase 1B inhibitory activity (malachite green, phosphorylated insulin receptor peptide substrate); type: biochemical; conditions: recombinant human PTP1B, 60 min room temperature, absorbance 650 nm
T1 construct: purchased UBI
T1 sequence (P18031 1-435): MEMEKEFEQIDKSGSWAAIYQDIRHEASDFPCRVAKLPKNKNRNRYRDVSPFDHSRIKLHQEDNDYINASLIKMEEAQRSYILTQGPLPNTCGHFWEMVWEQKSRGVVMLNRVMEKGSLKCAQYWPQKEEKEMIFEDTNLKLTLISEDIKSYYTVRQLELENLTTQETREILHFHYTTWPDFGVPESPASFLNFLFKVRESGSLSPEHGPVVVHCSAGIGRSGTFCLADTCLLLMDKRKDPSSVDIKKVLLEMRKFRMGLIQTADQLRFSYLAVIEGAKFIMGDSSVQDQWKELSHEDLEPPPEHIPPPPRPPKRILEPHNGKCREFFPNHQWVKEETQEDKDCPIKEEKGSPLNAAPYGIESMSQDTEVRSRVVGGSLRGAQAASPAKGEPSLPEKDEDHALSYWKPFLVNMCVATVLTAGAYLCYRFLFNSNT
Method: Preparation of Assay Buffer:
A 50 mM Tris-HCl buffer (pH 7.5), 50 mM NaCl and 3 mM dithiothreitol (DTT) were prepared.
[…] 0.1, 0.3, 1, 3 and 10 μM of the test compound were prepared and diluted with the above-mentioned assay buffer to the final dimethyl sulfoxide (DMSO) concentration of not more than 1%. As the control, the assay buffer was used.
Preparation of Substrate:
Recombinant human protein tyrosine phosphatase 1B (manufactured by UBI) was diluted with the above-mentioned assay buffer (1.2 ng/25 μl).
The sample (10 μl) prepared as mentioned above and a substrate (25 μl) were successively added to a 96 well plate, and the enzyme (25 μl) prepared as mentioned above was added and mixed. The mixture was incubated at room temperature for 60 min and a malachite green (120 μl, Biomol), which is a color reagent, was added. The mixture was further incubated at room temperature for 20 min to allow for color development. An absorbance at 650 nm was measured on a plate reader based on which the protein tyrosine phosphatase 1B inhibitory activity of the test compound was evaluated.

SMILES	melting point	IC50 [1] [µM]
C[C@H]1CC[C@H](c2ccc(COc3ccc(-c4ccc(CN(CC5CCCCC5)C(=O)Nc5ccc(C(=O)O)cc5)s4)cc3)cc2)CC1 [Example 4-80]	168 to 169.9 °C	< 0.1
CCCC(CCC)c1ccc(OCc2ccc(-c3ccc(CN(CC(=O)O)CC(=O)Nc4ccc(C(C)C)cc4)s3)cc2)cc1 [Example 4-9]	172 to 174 °C	0.12
CCCC(CCC)c1ccc(COc2ccc(-c3csc(CN4CCC(c5cccc(C(=O)O)c5)CC4)n3)cc2)cc1 [Example 1-162]	187 to 189 °C	0.21
CCCC(CCC)c1ccc(OCc2ccc(-c3csc(CN(CC(=O)O)C(=O)c4ccc(C(C)C)cc4)c3)cc2)cc1 [Example 4-70]	109 to 111 °C	0.17
CCCC(CCC)c1ccc(OCc2ccc(-c3ccc(CN(CC(=O)O)S(=O)(=O)c4ccc(Cl)s4)s3)cc2)cc1 [Example 4-100]	151.2 to 154.4 °C	< 0.1
CCCC(CCC)c1ccc(OCc2ccc(-c3ccc(CN(CC(=O)OCC)CC(=O)c4ccc(N5CCCC5)cc4)s3)cc2)cc1.Cl [Example 4-82]	75.3 to 79.3 °C	0.48
CCCC(CCC)c1ccc(Cn2cc(-c3csc(Cn4cc(C(=O)O)c5ccccc54)n3)c3ccccc32)cc1 [Example 1-182]	148 to 152 °C	0.19
CCCC(CCC)c1ccc(OCc2ccc(-c3ccc(CN(CC(=O)O)Cc4nc5ccccc5o4)s3)cc2)cc1 [Example 4-96]	127.4 to 130 °C	0.12
CCCC(CCC)c1ccc(Cn2cc(-c3csc(CN4CCN(c5cccc(C(=O)O)c5)CC4)n3)c3ccccc32)cc1 [Example 1-172]	107 to 110 °C	0.28
CCCC(CCC)c1ccc(OCc2ccc(-c3csc(CC4CCN(c5ccc(C(=O)O)cc5)CC4)n3)cc2)cc1 [Example 1-181]	174 to 175 °C	0.2
O=C(O)CCN(Cc1ccccc1)Cc1ccc(-c2ccc3c(c2)CCC3Cc2ccc(C3CCCCC3)cc2)s1 (stereo not drawn) [Example 4-84]	121 to 128 °C	0.27
CCCC(CCC)c1ccc(OCc2ccc(-c3ccc(CN(CC(=O)O)c4nc5ccccc5s4)s3)cc2)cc1 [Example 4-99]	104.4 to 107.2 °C	< 0.1
CCCC(CCC)c1ccc(OCc2ccc(-c3csc(CN(CC(=O)O)Cc4ccc5[nH]ccc5n4)c3)cc2)cc1 [Example 4-90]	203.4 to 205.3 °C	0.16
CCCC(CCC)c1ccc(OCc2ccc(-c3csc(CN(CC(=O)O)Cc4ccc(-n5ccnc5)cc4)c3)cc2)cc1 [Example 4-91]	167.5 to 169.9 °C	0.17
CCCC(CCC)c1ccc(Cn2cc(-c3csc(CN4CCc5ccc(C(=O)O)cc5C4)n3)c3ccccc32)cc1 [Example 1-166]	124 to 128 °C	0.31
CCCC(CCC)c1ccc2c(c1)nc(-c1csc(COc3ccc(C(=O)O)cc3)n1)n2Cc1ccc(C(C)C)cc1 [Example 1-158]	147 to 152 °C	0.29
CCCC(CCC)c1ccc(OCc2ccc(-c3csc(CN4CCc5ccc(C(=O)O)cc5C4)n3)cc2)cc1 [Example 1-160]	148.5 to 149.5 °C	0.31
CCCC(CCC)c1ccc(OCc2ccc(-c3csc(CSc4ccc(C(=O)O)cc4)c3)cc2)cc1 [Example 4-60]	133.9 to 135.1 °C	< 0.1
Cl.O=C(O)C1(c2ccccc2)CCN(Cc2ccc(-c3cn(Cc4ccc(C5CCCCC5)cc4)c4ccccc34)s2)CC1 [Example 4-62]	227.3 to 233.6 °C	0.45
CCCC(CCC)c1ccc(OCc2ccc(-c3ccc(C(=O)N(CC(=O)O)Cc4ccc(C(C)C)cc4)s3)cc2)cc1 [Example 4-44]	134 to 136 °C	0.12
CCCC(CCC)c1ccc(Cn2cc(-c3csc(COc4ccc(C(=O)O)cc4)n3)c3ccccc32)cc1 [Example 1-157]	199 to 200 °C	0.17
CCC(CC)c1ccc(COc2ccc(-c3csc(CN(CC(=O)O)Cc4ccc(F)cc4)n3)cc2)cc1 [Example 3-14]	153 to 155 °C	0.38
CCCC(CCC)c1ccc(OCc2ccc(-c3csc(CN(CC(=O)O)Cc4nc5ccccc5[nH]4)c3)cc2)cc1 [Example 4-6]	153 to 155 °C	0.092

SMILES	melting point	IC50 [1] [µM]
CCCC(CCC)c1ccc(OCc2ccc(-c3ccc(CN(CC(=O)O)Cc4cc(C(F)(F)F)ccc4Cl)s3)cc2)cc1 [Example 4-75]	92.6 to 94.7 °C	< 0.1
CCCC(CCC)c1ccc(OCc2ccc(-c3csc(CN(CC(=O)O)S(=O)(=O)N(C)c4ccccc4)c3)cc2)cc1 [Example 4-64]	139 to 140.2 °C	0.24
Cc1ccc(OCc2ccc(C3CCCCC3)cc2)c(-c2csc(CN(C)[C@@H](Cc3ccccc3)C(=O)O)c2)c1 [Example 4-102]	117 to 123.1 °C	0.37
CCCC(CCC)c1ccc(OCc2ccc(-c3csc(COc4cc(C(=O)O)ccc4NC(=O)C(C)C)c3)cc2)cc1 [Example 4-57]	153.7 to 154.9 °C	0.17
CCCC(CCC)c1ccc(OCc2ccc(-c3csc(CN(CC(=O)O)Cc4nccn4Cc4ccccc4)c3)cc2)cc1 [Example 4-89]	135.2 to 136 °C	0.49
CCCC(CCC)c1ccc(OCc2ccc(-c3ccc(CN(CC(=O)O)Cc4cc5ccccc5s4)s3)cc2)cc1 [Example 4-97]	202.3 to 204.4 °C	0.11
CCCC(CCC)c1ccc(OCc2ccc(-c3csc(CN(CC(=O)O)Cc4nc5ccccc5n4C)c3)cc2)cc1.Cl [Example 4-54]	165.7 to 166.8 °C	0.14
CCCC(CCC)c1ccc(COc2ccc(-c3csc(CN4CCC(c5ccc(C(=O)O)cc5)CC4)n3)cc2)cc1 [Example 1-161]	191 to 193 °C	0.18
CCCC(CCC)c1ccc(COc2ccc(-c3csc(CN4CCN(c5ccccc5C(=O)O)CC4)n3)cc2)cc1 [Example 1-155]	137 to 138 °C	0.37
CCCC(CCC)c1ccc(OCc2cccc(-c3csc(CN4CCc5ccc(C(=O)O)cc5C4)c3)c2)cc1 [Example 4-73]	69.4 to 78.3 °C	0.19
Cl.O=C(O)CN(Cc1ccccc1)Cc1ccc(-c2cn(Cc3ccc(C4CCCCC4)cc3)c3ccccc23)s1 [Example 4-63]	161 to 164.3 °C	0.42
CCCC(CCC)c1ccc(OCc2ccc(-c3ccc(CN(CC(=O)O)c4nc(-c5ccc(Cl)cc5)cs4)s3)cc2)cc1 [Example 4-107]	116 to 117.6 °C	< 0.1
CCCC(CCC)c1ccc(CN(C)c2ccc(-c3csc(CN(C)[C@H](C(=O)O)c4ccccc4)n3)cc2)cc1 [Example 3-87]	146 °C	0.21
Cc1ccc(OCc2ccc(C3CCCCC3)cc2)c(-c2csc(CN(C(=O)C(=O)O)c3ccc4nc(C)sc4c3)c2)c1 [Example 4-104]	115.9 to 121.1 °C	0.2
CN(C[C@H]1CC[C@H](c2ccc(Cl)cc2)CC1)c1ccc(-c2csc(CN3CCC(C(=O)O)(c4ccccc4)CC3)n2)cc1 [Example 3-70]	167 to 170 °C (dec.)	0.16
CCCC(CCC)c1ccc(Cn2cc(-c3csc(CNc4cccc(C(=O)O)c4)n3)c3ccccc32)cc1 [Example 1-167]	83 to 85 °C	0.41
CCCC(CCC)c1ccc(OCc2ccc(-c3ccc(CN(CC(=O)O)Cc4c[nH]nc4-c4ccccc4)s3)cc2)cc1 [Example 4-95]	145.9 to 149.3 °C	0.28
CCCC(CCC)c1ccc(OCc2ccc(-c3csc(COc4cc(C(=O)O)ccc4N)c3)cc2)cc1 [Example 4-61]	156.5 to 165.5 °C	0.25
CCCC(CCC)c1ccc(OCc2ccc(-c3csc(CN(CC(=O)O)Cc4cc5ccccc5o4)c3)cc2)cc1 [Example 4-92]	146.7 to 148.9 °C	< 0.1
CCCC(CCC)c1ccc(OCc2ccc(-c3ccc(CN(CC(=O)O)Cc4c[nH]c(-c5ccccc5)n4)s3)cc2)cc1 [Example 4-94]	131.8 to 137.6 °C	0.12
CCCC(CCC)c1ccc(OCc2ccc(-c3csc(CN(CC(=O)O)Cc4ccc5ccccc5n4)c3)cc2)cc1 [Example 4-87]	137.3 to 138.7 °C	0.12
CCCC(CCC)c1ccc(OCc2ccc(-c3ccc(C(=O)N4CCC(c5ccc(C(=O)O)cc5)CC4)s3)cc2)cc1 [Example 4-53]	176 to 178 °C	0.07
